Read-outs that look alike come from different tables or passages of the source.
Assays:
[1] = biological target: recombinant human BACE-1 protein (Homo sapiens (Human), UniProt P56817); assay: Measurement of Inhibition of β-Secretase Activity; assay type: biochemical; conditions: 3 h at 30° C., pH5.0, read-out: IC50 value
Method in brief: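 Recombinant human BACE-1 incubated with compound and Eu-cryptate-labelled biotinylated peptide substrate 3 h at 30° C in 50 mM sodium acetate pH 5.0, 0.008% Triton X-100. Streptavidin-XL665 in KF-containing phosphate buffer pH 7.0 then added, 1 h at 30° C, for time-resolved FRET read-out.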

[2] = recombinant human BACE-1 protein
[3] = fluorescence-quenched peptide substrate 18 nM, BACE-1 7.4 nM

Chain of recombinant human BACE-1 protein (P56817 46-501): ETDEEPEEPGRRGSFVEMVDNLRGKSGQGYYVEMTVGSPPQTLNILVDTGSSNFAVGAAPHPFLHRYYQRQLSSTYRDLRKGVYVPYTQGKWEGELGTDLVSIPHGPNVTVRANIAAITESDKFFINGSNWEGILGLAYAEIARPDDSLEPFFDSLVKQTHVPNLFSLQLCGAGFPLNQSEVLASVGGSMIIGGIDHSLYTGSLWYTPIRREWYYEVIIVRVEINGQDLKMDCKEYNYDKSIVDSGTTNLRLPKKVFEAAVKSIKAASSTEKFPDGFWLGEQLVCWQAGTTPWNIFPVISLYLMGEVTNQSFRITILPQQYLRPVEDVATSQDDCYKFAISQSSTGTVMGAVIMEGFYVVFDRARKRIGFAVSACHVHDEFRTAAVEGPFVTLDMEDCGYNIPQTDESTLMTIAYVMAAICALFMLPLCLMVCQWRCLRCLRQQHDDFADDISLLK

Row | SMILES | IC50 [1, 2] | melting point | IC50 [1, 3]
1 | Cc1cnc(C(=O)Nc2cccc(C3(C)CCSC(N)=N3)c2)cn1.Cl (stereo not shown) [Compound 309] | 0.833 µM | 241 to 244 °C | –
2 | CC1(c2cccc(C(=O)Nc3ccc(Cl)cn3)c2)CCSC(N)=N1.Cl.Cl (stereo not shown) [Compound 220] | 1.5 µM | 191 to 193 °C | –
3 | COc1ccc(CNc2cccc(C3(C)CCSC(N)=N3)c2)cc1.Cl.Cl (stereo not shown) [Compound 600] | – | 178 to 180 °C | < 100 µM
4 | Cc1ccccc1C1(C)CCSC(N)=N1 (stereo not shown) [Compound 756] | – | 110 to 111 °C | < 100 µM
5 | CC1(c2cccc(/C(Cl)=C/C(=O)Nc3ccc(Cl)cn3)c2)CCSC(N)=N1 (stereo not shown) [Compound 1142] | – | 182 to 186 °C (dec.) | < 100 µM
6 | COCc1ccc(C(=O)Nc2cccc(C3(C)CCSC(N)=N3)c2)nc1 (stereo not shown) [Compound 128] | – | 159 to 163 °C | < 100 µM
7 | CC1(c2cc(F)cc(NC(=O)c3ccc(C(F)(F)F)cn3)c2)CCSC(N)=N1 (stereo not shown) [Compound 178] | – | 224 to 225 °C | < 100 µM
8 | CC1(c2ccc(F)c(OCCCc3ccccc3)c2)CCSC(N)=N1.Cl (stereo not shown) [Compound 1069] | – | 194 to 196 °C | < 100 µM
9 | CC1(c2cccc(/C=C/C(=O)Nc3ccccc3)c2)CCSC(N)=N1 (stereo not shown) [Compound 1109] | – | 134 to 140 °C | < 100 µM
10 | CC(C)Oc1cnc(C(=O)Nc2cccc(C3(C)CCSC(N)=N3)c2)cn1 (stereo not shown) [Compound 410] | – | 178 to 182 °C | < 100 µM
11 | CC1(c2cccc(NC(=O)c3ncc(C(F)(F)F)cc3F)c2)CCSC(N)=N1 (stereo not shown) [Compound 643] | – | 155 to 157 °C | < 100 µM
12 | COc1ccc(CCCOc2cccc(C3(C)CCSC(N)=N3)c2)cc1.Cl (stereo not shown) [Compound 936] | – | 169 to 170 °C | < 100 µM
13 | CC1(c2cccc(CO)c2)CCSC(N)=N1 (stereo not shown) [Compound 501] | – | 155 to 156 °C | < 100 µM
14 | CC1(c2cccc(COc3ccccc3)c2)CCSC(N)=N1 (stereo not shown) [Compound 990] | – | 126 to 129 °C | < 100 µM
15 | CC1(c2cccc(NC(=O)c3ccc(Cl)cc3Cl)c2)CCSC(N)=N1 (stereo not shown) [Compound 625] | 1.29 µM | 107 to 109 °C | –
16 | CC1(c2cccc(OCCCc3cccnc3)c2)CCSC(N)=N1 (stereo not shown) [Compound 282] | – | 146 to 147 °C | < 100 µM
17 | CC1(c2ccc3ccccc3c2)CCSC(N)=N1.Cl (stereo not shown) [Compound 3] | – | 285 °C (dec.) | < 100 µM
18 | CC1(c2ccc(Oc3ccccc3)cc2)CCSC(N)=N1 (stereo not shown) [Compound 1055] | – | 169 to 170 °C | < 100 µM
19 | CC1(c2ccc(F)c(C(=O)Nc3ccc(Cl)cn3)c2)CCSC(N)=N1 (stereo not shown) [Compound 1125] | – | 195 to 198 °C | < 100 µM
20 | CC1(c2cc(NC(=O)c3ncc(Cl)cn3)ccc2F)CCSC(N)=N1 (stereo not shown) [Compound 204] | – | 205 to 208 °C | < 100 µM
21 | CC1(c2ccc(C(=O)Nc3ccc(Cl)cn3)s2)CCSC(N)=N1 (stereo not shown) [Compound 500] | – | 181 to 184 °C | < 100 µM
22 | Cl.NC1=NC(c2cccc(NC(=O)c3ccc(Cl)cn3)c2)CCS1 (stereo not shown) [Compound 740] | 0.505 µM | 250 °C (dec.) | –
23 | CC1(c2cccc(NC(=O)c3ccc(Cl)cn3)c2Cl)CCSC(N)=N1 (stereo not shown) [Compound 813] | – | 204 to 205 °C | < 100 µM
24 | CC1(c2cc(Br)cc(NC(=O)c3cc4ccccc4s3)c2)CCSC(N)=N1.Cl (stereo not shown) [Compound 1014] | 0.165 µM | 206 to 210 °C | –
25 | Cc1cc(C(=O)Nc2cc(Br)cc(C3(C)CCSC(N)=N3)c2)c(C)o1 (stereo not shown) [Compound 731] | 0.278 µM | 91 to 94 °C | –

Row | SMILES | IC50 [1, 2] | melting point | IC50 [1, 3]
26 | CC(=O)c1ccc(C(=O)Nc2cccc(C3(C)CCSC(N)=N3)c2)nc1 (stereo not shown) [Compound 139] | – | 287 to 290 °C | < 100 µM
27 | COc1ccc2cc(C3(C)CCSC(N)=N3)ccc2c1 (stereo not shown) [Compound 871] | – | 212 to 213 °C | < 100 µM
28 | CC1(c2cccc(OCCOc3ccccc3)c2)CCSC(N)=N1.Cl (stereo not shown) [Compound 57] | – | 197 to 198 °C | < 100 µM
29 | COc1cnc(C(=O)Nc2cccc(C3(C)CCSC(N)=N3)c2)cn1 (stereo not shown) [Compound 243] | – | 182 to 184 °C | < 100 µM
30 | Cc1ccc2cc(C3(C)CCSC(N)=N3)ccc2c1 (stereo not shown) [Compound 758] | – | 156 to 157 °C | < 100 µM
31 | Cc1cnc(C(=O)Nc2ccc(F)c(C3(C)CCSC(N)=N3)c2)cn1 (stereo not shown) [Compound 359] | – | 212 to 214 °C | < 100 µM
32 | CCOC(=O)/C=C/c1cccc(C2(C)CCSC(N)=N2)c1 (stereo not shown) [Compound 417] | 5 µM | 137 to 139 °C | –
33 | CC1(c2ccc(Oc3ccc(F)cc3)cc2)CCSC(N)=N1 (stereo not shown) [Compound 267] | – | 114 to 115 °C | < 100 µM
34 | CC1(c2ccc3c(c2)CCO3)CCSC(N)=N1 (stereo not shown) [Compound 1084] | – | 146 to 149 °C | < 100 µM
35 | CC1(c2cc(Br)cc(NC(=O)c3ccc(Cl)cn3)c2)CCSC(N)=N1.Cl (stereo not shown) [Compound 165] | 0.0394 µM | 246 to 248 °C | –
36 | CC1(c2cccc(/C=C/c3ccc(Cl)cc3)c2)CCSC(N)=N1.Cl (stereo not shown) [Compound 161] | 7.7 µM | 247 to 251 °C | –
37 | CC1(c2ccc(O)cc2)CCSC(N)=N1.Cl (stereo not shown) [Compound 413] | – | 251 to 254 °C | < 100 µM
38 | Cc1cccc(Oc2ccc(C3(C)CCSC(N)=N3)cc2)c1 (stereo not shown) [Compound 1110] | – | 109 to 110 °C | –
39 | NC1=NC2(CCCc3ccccc32)CCS1 (stereo not shown) [Compound 445] | – | 92 to 93 °C | –
40 | COc1ccc(SCCOc2cccc(C3(C)CCSC(N)=N3)c2)cc1 (stereo not shown) [Compound 916] | – | 131 to 132 °C | –
41 | CNC(=O)CNC1=NC(C)(c2ccc3ccccc3c2)CCS1 (stereo not shown) [Compound 930] | – | 132.1 to 134.4 °C | –
42 | CC1(c2ccc(-c3ccccc3)cc2)CCSC(N)=N1 (stereo not shown) [Compound 1181] | – | 194 to 195 °C | –
43 | CC1(c2ccccc2)CN=C(N)SC1.Cl (stereo not shown) | – | 235 to 240 °C | –
44 | CC1(c2ccccc2)CCN=C(N)O1.Cl (stereo not shown) | – | 205 to 206 °C | –
45 | CC1(c2cc(F)cc(NC(=O)c3cnccn3)c2)CCSC(N)=N1 (stereo not shown) [Compound 244] | – | 222 to 224 °C | –
46 | CCCCOc1ccc(C2(C)CCSC(N)=N2)cc1 (stereo not shown) [Compound 636] | – | 118 to 119 °C | –
47 | CC1(c2ccc(F)c(-n3nc4c5cc(Cl)ccc5[nH]cc-4c3=O)c2)CCSC(N)=N1 (stereo not shown) [Compound 1166] | – | 290 to 295 °C | –
48 | CCOc1ccc(C2(C)CCSC(N)=N2)cc1 (stereo not shown) [Compound 132] | – | 147 to 150 °C | –
49 | COc1ccc(C2(C)CCCSC(N)=N2)cc1 (stereo not shown) [Compound 1008] | – | 125 to 126 °C | –
50 | CC1(c2ccccc2)CC(c2ccccc2)SC(N)=N1.Cl (stereo not shown) | – | 161 to 165 °C | –

Row | SMILES | IC50 [1, 2] | melting point | IC50 [1, 3]
51 | CC(=O)/N=C1\NC(C)(c2ccc(F)cc2)CCS1 (stereo not shown) [Compound 767] | – | 98 to 100 °C | –
52 | CC1(c2csc(C(=O)Nc3ccccc3)c2)CCSC(N)=N1 (stereo not shown) [Compound 235] | – | 196 to 200 °C | –
53 | NC1=NC2(CCS1)CCc1ccccc12 (stereo not shown) [Compound 525] | – | 105 to 106 °C | –
54 | CC1(c2cccc(C(=O)Nc3ccc(Cl)cc3)c2)CCSC(N)=N1 (stereo not shown) [Compound 700] | – | 177 to 178 °C | –
55 | CC1(c2cccc3c2CC(=O)N3)CCSC(N)=N1.Cl (stereo not shown) | – | 272 to 285 °C (dec.) | –
56 | COC(=O)c1ccc(C2(C)CCSC(N)=N2)cc1 (stereo not shown) [Compound 1119] | – | 153 to 157 °C | –
57 | CN(C)C(=O)c1ccc(C2(C)CCSC(N)=N2)cc1 (stereo not shown) [Compound 644] | – | 201 to 203 °C | –
58 | CC1(c2ccc3c(c2)OCCO3)CCNC(N)=N1.Cl (stereo not shown) | – | 198 to 201 °C | –
59 | CC1(c2ccc(F)c(C(=O)Nc3cc(Cl)ccn3)c2)CCSC(N)=N1 (stereo not shown) [Compound 1068] | – | 132 to 134 °C | –
60 | CC1(c2cccc(NC(=O)c3cnc4ccccc4n3)c2)CCSC(N)=N1 (stereo not shown) [Compound 1115] | – | 167 to 170 °C | –
61 | CC1(c2ccc(Cl)cc2)CSC(N)=N1 (stereo not shown) [Compound 24] | – | 116 to 117 °C | –
62 | CC1(c2cccc(COc3ccc(Cl)cn3)c2)CCSC(N)=N1 (stereo not shown) [Compound 683] | – | 166 to 168 °C | –
63 | COC(=O)c1cccc(C2(C)CCSC(N)=N2)c1 (stereo not shown) [Compound 1153] | – | 156 to 159 °C | –
64 | CC1(c2cccc(CN3CCOCC3)c2)CCSC(N)=N1 (stereo not shown) [Compound 649] | – | 161 to 162 °C | –
65 | CC(C)(C)c1cccc(Oc2ccc(C3(C)CCSC(N)=N3)cc2)c1 (stereo not shown) [Compound 401] | – | 106 to 107 °C | –
66 | CC1(c2cc(NC(=O)c3ncc(Cl)cc3Cl)ccc2F)CCSC(N)=N1 (stereo not shown) [Compound 827] | – | 134 to 137 °C | –
67 | CC1(c2ccccc2)CCN=C(N)S1.Cl (stereo not shown) | – | 201 to 204 °C | –
68 | CC1(c2ccc(C(F)(F)F)cc2)CCSC(N)=N1 (stereo not shown) [Compound 573] | – | 112 to 114 °C | –
69 | CC1(c2cc(F)cc(NC(=O)c3ncc(Cl)cc3Cl)c2)CCSC(N)=N1 (stereo not shown) [Compound 342] | – | 184 to 187 °C | –
70 | COc1cccc(C2(C)CCSC(N)=N2)c1 (stereo not shown) [Compound 851] | – | 82 to 83 °C | –
71 | CC1(c2cccc(CNC(=O)c3ccccc3)c2)CCSC(N)=N1.Cl (stereo not shown) | – | 143 to 145 °C | –
72 | CCC1(c2ccc(OC)cc2)CCSC(N)=N1 (stereo not shown) [Compound 709] | – | 99 to 100 °C | –
73 | CN(C)Cc1ccc(C(=O)Nc2cccc(C3(C)CCSC(N)=N3)c2)nc1 (stereo not shown) [Compound 653] | – | 193 to 194 °C | –
74 | Cc1ccc(C(=O)NCc2cccc(C3(C)CCSC(N)=N3)c2)cc1.Cl (stereo not shown) | – | 153 to 155 °C | –
75 | CC(C)(C)NC1=NC(C)(c2ccccc2)CCCS1 (stereo not shown) [Compound 810] | – | 47 to 48 °C | –

Reference: patent publication US8546380B2, “Aminodihydrothiazine derivatives” (Shionogi & Co., Ltd., priority 2005, dated 2013)
